Results on one substance are retold here after US7238527B2, “Methods and compositions for rapid in vitro propagation of Swertia chirata” (priority 2001, dated 2007).

For the assay, the system named is Swertia chirata shoots. Kind of assay: Rooting of excised four-week shoots on modified MS with auxins (Example 3). It is filed as cell-based. The settings on record: for Rooting %: agar 0.8%. The protocol:
The effect of various auxins on rooting percent and duration may be studied using four-week shoots obtained in the preceding section.
The excised shoot may be transferred to modified MS basal culture medium with varied concentrations of several auxins selected from a group comprising IAA, IBA, and NAA as shown in Table 3.
In this experiment there are 3 treatments of auxin IAA, IBA and NAA using various levels (1–5 mg/L) supplemented to modified MS media, Supporting system Agar (0.8%).
Four weeks long shoot achieved in experiment 2 were excised and transferred to above referred medium

As to indole butyric acid [IBA], the Time to rooting entry (1.0 to 5.0 mg/L auxin in modified MS basal culture medium) was “about 8 weeks”. Besides, the “Rooting (wks)” value is, setting by setting: (auxin 1 mg/L in modified MS) 8 wks; (auxin 2 mg/L in modified MS) 8 wks; (auxin 5 mg/L in modified MS) 8 wks. Moreover, the Rooting % turned out to be 60% (auxin 1 mg/L in modified MS), 62% (auxin 2 mg/L in modified MS) and 60% (auxin 5 mg/L in modified MS). Moreover, the Root morphology entry (in words) was “white colored, thick, and short”.
